Assay results: patent US20240335395A1, “COMPOSITIONS AND METHODS FOR PREVENTING AND/OR TREATING DISEASE ASSOCIATED WITH IL-23 EXPRESSION” (ALLSPIM, priority 2021, published 2024)

Assays:
IL-23 [1] = assay: IL-23 production (ELISA of supernatant) in LPS-stimulated THP-1 cell culture, Examples 1 and 8; format: cell-based, human
Protocol: The THP-1 cell line (TIB-202) was obtained from the American Type Culture Collection (ATCC, USA), grown in RPMI 1640 culture medium (Gibco) supplemented with 10% fetal bovine serum (Gibco, UK), 50 U/mL penicillin-streptomycin (Gibco), and 0.05 mM 2-Mercaptoethanol (Gibco). Cultured cells were plated into culture plates in appropriate volumes with a cell density of 500,000 cells/mL.
PCR was performed in duplicate using SYBR Green qPCR master mix (Takara Biomedical Technology Co., Ltd, Dalian, China) on an ABI 7500 Real-Time PCR System (Thermo, USA). The cycling program was as follows: denaturation at 95° C. for 15 s, 40 cycles of 95° C. for 15 s and extension at 60° C. for 60 s, followed by melt curve generation. The ΔΔCT method was used to quantify relative mRNA levels as described in User Bulletin #2 for the ABI PRISM 7700 Sequence Detection System (Applied Biosystems, 2001). The primer sequences used in this study are 5′-[…]-3′ (forward), 5′-[…]-3′ (reverse) for human IL-23p19 (SEQ ID NOs: 4 and 5, respectively); and 5′-ACAGTCCATGCCATCACTG-3′ (forward) and 5′-AGTAGAGGCAGGGATGATG-3′ for human GAPDH as a reference (SEQ ID NOs: 6 and 7, respectively). 24 hours after culture and treatments, supernatants were collected and IL-23 levels measured using the IL-23 Human Uncoated ELISA Kit (ThermoFisher Scientific Inc., USA) according to the manufacturer's instructions. A Varioskan LUX microplate reader (Thermo Fisher, USA) was used for the assay and 4-parameter logistic regression was used for data analysis. Two duplicates per sample were performed and results were averaged.
The anti-IL-23 activity of 2,4-D was compared with the commercially prescribed nonsteroidal anti-inflammatory drugs (NSAIDs:[…], Ibuprofen, and Aspirin) in the LPS-stimulated THP-1 cell culture system described above (Example 1)).

[2] = test system: MSU-induced leukocyte recruitment; assay: MSU-induced leukocyte recruitment to the synovial cavity of knee joint; format: in vivo, mouse; conditions: 20 h; 2,4-D 100 mg/kg, CLC 1 mg/kg, DEX 0.5 mg/kg
Protocol: (§1) 2,4-D, isolated and purified from Chloranthus spicatus (purity≥98%), was purchased from BOC Science (Shirley, NY). Colchicine (CLC) (purity≥96%) and dexamethasone (DEX) (purity≥98%) were purchased from Sigma. Mice (six per group) were treated with 2,4-D (100 mg/kg or 20 mg/kg, i.p.), CLC (1 mg/kg or 0.2 mg/kg, i.p.), DEX (0.5 mg/kg or 0.1 mg/kg, i.p.), or vehicle (20% polyoxyethylenesorbitan monooleate (Tween 80) plus PBS) 30 min before intra-articular stimulus with MSU (100 μg/10 μL, i.a.). Six mice with intra-articular injection with PBS alone served as a negative control.
(§2) Induction of MSU-Induced Knee Joint Inflammation. Male ICR (CD-1) mice (35-45 g, 10-12 weeks) were purchased from VitalRiver Inc (Beijing, China) and were kept in an animal care facility under controlled temperature of 21±1° C., humidity, and on a light/dark cycle, with ad libitum access to water and standard laboratory chow diet. Animal care and handling procedures were approved by the Animal Ethics Committee of GZUCM (Guangzhou University of Chinese Medicine). All efforts were made to minimize animal suffering and to reduce the number of animals used. Joint inflammation was induced by the intra-articular (i.a.) administration of MSU (200 μg/20 μl) into the right and left knee joints of mice under inhaled 3% isoflurane anesthesia. Control animals received an injection (i.a.) of sterile PBS (20 μL).
Histopathological Analysis. Knee joint was collected 20 h after MSU injection, fixed with 10% paraformaldehyde in PBS, and then decalcified for 10 days with EDTA and embedded in paraffin for histological analysis. […] Results are expressed as leukocytes infiltrate (cell/field) counted at the inflammatory foci within synovial cavity as indicative of synovitis. […]
Statistical Analysis. Data were analyzed using GraphPad Prism statistical software (GraphPad Software, Inc., United States-500.288, version 5.0). Results are presented as means±SEM or SD of measurements made on 6 mice per group, with statistical significance determined by two-way ANOVA, comparing each group to the control (“Model”) group. […]

TNF-alpha = assay: MSU-induced TNF-alpha in knee joint tissue (multiplex microassay); format: in vivo, mouse; conditions: 2,4-D 100 mg/kg, CLC 1 mg/kg, DEX 0.5 mg/kg
Protocol: (§3) Mice (six per group) were treated with 2,4-D (100 mg/kg or 20 mg/kg, i.p.), CLC (1 mg/kg or 0.2 mg/kg, i.p.), DEX (0.5 mg/kg or 0.1 mg/kg, i.p.), or vehicle (20% polyoxyethylenesorbitan monooleate (Tween 80) plus PBS) 30 min before intra-articular stimulus with MSU (100 μg/10 μL, i.a.). Six mice with intra-articular injection with PBS alone served as a negative control.
as §2
(§4) Cytokine Measurement. Mice were anesthetized and sacrificed. Knee joints were collected and frozen in liquid nitrogen. Samples were then homogenized in 500 μl of buffer containing protease inhibitors, centrifuged (3600 rpm, 4° C., 15 min) and supernatants were used to determine Th1/Th2/Th17 cytokine levels using a multiplex microassay (Qantibody® mouse TH17 Array 1 kit, Cat. No.: QAM-TH17-1; RayBiotech, Norcross, GA). Results were expressed as picograms (pg) of cytokine/mg of tissue.
(§5) Statistical Analysis. […] For in vitro experiments, microassays were performed in quadruplicate. p<0.05 was considered significant (*p<0.05, **p<0.01, ***p<0.001).

IL-10 = assay: MSU-induced IL-10 in knee joint tissue (multiplex microassay); format: in vivo, mouse; conditions: CLC 1 mg/kg
Protocol: as §3, §2, §4, §5

IL-1ß = assay: MSU-induced IL-1ß in knee joint tissue (multiplex microassay); format: in vivo, mouse; conditions: 2,4-D 100 mg/kg, CLC 1 mg/kg, DEX 0.5 mg/kg
Protocol: as §3, §2, §4, §5

IL-6 = assay: MSU-induced IL-6 in knee joint tissue (multiplex microassay); format: in vivo, mouse; conditions: 2,4-D 100 mg/kg, CLC 1 mg/kg, DEX 0.5 mg/kg
Protocol: as §3, §2, §4, §5

[3] = test system: MSU-induced knee joint edema; assay: MSU-induced knee joint edema in mice; format: in vivo, mouse; conditions: 20 h; high dose i.p.: 2,4-D 100 mg/kg, CLC 1 mg/kg, DEX 0.5 mg/kg
Protocol: as §1
Preparation of monosodium urate crystal (MSU). MSU crystals were prepared as described previously (Ruiz-Miyazawa et al., 2017). Briefly, 800 mg of monosodium urate was dissolved in 155 ml of boiling milli-Q water containing 2N NaOH. After pH adjustment to 8.9, the solution was cooled gradually by stirring at room temperature and crystallized overnight at 4° C. Crystals were collected, and centrifuged at 3,000×g for 2 min at 4° C. The crystals were evaporated and sterilized by heating at 180° C. for 2 h and stored in a sterile environment until use. The load of endotoxin present in the MSU crystals was determined using a ToxinSensor^TM Single Test Kit (GenScript).
as §2
Evaluation of Knee Joint Edema. Knee joint edema was determined with a caliper (Mitutoyo) before (zero time), and after the intra-articular injection with MSU at the times indicated. Knee joint edema was determined for each mouse by the difference between the time points indicated on figures and the zero time (Ruiz-Miyazawa et al, 2017). The edema value is represented as Amm/joint.
Statistical Analysis. Data were analyzed using GraphPad Prism statistical software (GraphPad Software, Inc., United States-500.288, version 5.0). Results are presented as means±SEM or SD of measurements made on 6 mice per group, with statistical significance determined by two-way ANOVA, comparing each group to the control (“Model”) group. For in vitro experiments, microassays were performed in quadruplicate. p<0.05 was considered significant (*p<0.05, **p<0.01, ***p<0.001).

IL-23 [4] = assay: IL-23 production (ELISA) in LPS-stimulated THP-1 cells, 2,4-D versus other chalcones, Example 2; format: cell-based, human; conditions: LPS-stimulated THP-1, 24 h
Excerpt: Molecules tested. Natural 2,4-D, isolated and purified from Chloranthus spicatus (purity HPLC≥98%, Cat. No.: 129742-43-2), was purchased from BOC Science (Shirley, NY). Synthetic 2,4-D (purity HPLC≥98%) was obtained from YIWEI Biotech (Shanghai, China). 2′-hydroxychalcone (2′-HC, purity HPLC≥98%, Cat. No.: 42224-53-3), 4-hydroxychlcone (4-HC, purity HPLC≥98%, Cat. No.: 20426-12-4), 2′,2-dihydroxychalcone (2′,2-DHC, purity HPLC≥98%, Cat. No.: IDF00045_ALDRICH), 2′,3-dihydroxychalcone (2′,3-DHC, purity HPLC≥98%, Cat No.: IDF00047_ALDRICH), 2′,4-dihydroxychalcone (2′,4-DHC, purity HPLC≥98%, Cat. No.: PH011685_ALDRICH), 2′,5′-dihydroxychalcone (2′,5′-DHC, purity HPLC≥98%, No.: IDF00046-1G), and 2′,4′,4-trihydroxychalcone (2′,4′4-THC, purity HPLC≥98%, No.: 38986_SIAL) were purchased from Sigma. 2′,4′-dihydroxychalcone (2′,4′-DHC, purity HPLC≥98%, Cat. No. AB151736) was purchased from abcr GmbH (Karlsruhe, Germany). Isobavachalcone (IBC), 4′-hydroxy-2′6′-dimethoxychalcone (HMC), 2-trifluoromethyl-2′-methoxychalcone (TFM) and Hydroxysafflor yellow A (HYA) were also tested.
Cell culture. THP-1 cells were cultured in RPMI 1640 culture medium (Gibco) supplemented with 10% fetal bovine serum (FBS; Gibco, UK.), 0.05 mM 2-mercaptoethanol, and 1% penicillin/streptomycin. Cells were used in exponential growth phase, with culture medium being replaced with fresh medium 1 day prior to the experiment. The following day, THP-1 cells were plated into 24-well culture plates with a cell density about 800,000 cells/mL and 2 mL per well. 10 ng/mL LPS was used to stimulate the THP-1 cells. RPMI 1640 medium containing 10% FBS and 1% P/S was used as a normal control (NC). 10 mM stock solutions of compounds in DMSO were diluted to 20 μM with complete culture medium just before use. Experiments were performed in quadruplicate.
Enzyme linked immune-sorbent assay (ELISA). At 24 hours, after centrifugation at 300 g for 10 min., 0.5 mL of supernatant was collected and stored at −80° C. until use. IL-23 levels were determined in culture supernatants as described in Example 1.

[5] = LPS-stimulated THP-1, Example 8

COc1cc(O)c(OC)c(O)c1C(=O)/C=C/c1ccccc1 [(E) isomer, 2′,4′-dihydroxy-3′,6′-dimethoxychalcone]
activity of (E) isomer relative to (Z) isomer (IL-23 [1]): 5 fold | inhibition of IL-23, (E) isomer compared with (Z) isomer (IL-23 [1]; LPS-stimulated THP-1 cell culture): greater

CC(=O)Oc1ccccc1C(=O)O [Aspirin, reference compound]
change of IL-23 production/release in supernatant (IL-23 [1]; [5]): no significant change

COc1cc2c(c(OC)c1OC)-c1ccc(OC)c(=O)cc1[C@@H](NC(C)=O)CC2 [CLC, Colchicine]
reduction of MSU-induced leukocyte recruitment [2]: 1.6 fold | decrease of TNF-alpha in knee joint tissue (TNF-alpha): no effect | increase of the expression of IL-10 in knee joint tissue (IL-10): 1.5 fold | decrease of IL-1ß in knee joint tissue (IL-1ß): no effect | decrease of IL-6 in knee joint tissue (IL-6): no effect | reduction of MSU-induced knee joint edema [3]: 32.6%

COc1cc(O)cc(OC)c1C(=O)C=Cc1ccccc1 [HMC, 4′-hydroxy-2′6′-dimethoxychalcone]
inhibition of IL-23 production (IL-23 [4]): do not inhibit

CC(C)=CCc1c(O)ccc(C(=O)/C=C/c2ccc(O)cc2)c1O [IBC, Isobavachalcone]
inhibition of IL-23 production (IL-23 [4]): do not inhibit

CC(C)Cc1ccc(C(C)C(=O)O)cc1 (centres unmarked) [Ibuprofen, reference compound]
reduction of IL-23 release in supernatant (IL-23 [1]; [5]): 20-25%

COc1cc(O)c(OC)c(O)c1C(=O)/C=C/c1ccccc1 [naturally isolated 2,4-D, 2′,4′-dihydroxy-3′,6′-dimethoxychalcone]
IC50 (IL-23 [4]; Homo sapiens, read-out: IC50 of inhibition of IL-23): ~2100 nM

Hydroxysafflor yellow A [HYA]
inhibition of IL-23 production (IL-23 [4]): do not inhibit
